Assay [1] deals with Human KDR (residues 790-1356) (Homo sapiens (Human), UniProt P35968). The experiment in a line: Human KDR kinase assay, HTRF KinEase (Example B-2). The format is biochemical. The following applies: protocol of Example B-2 (other compounds). Summed up: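 Human KDR residues 790-1356 (0.1 ng/well) in buffer with 5 mM MgCl2, 1 mM MnCl2, 1 mM DTT, biotinylated peptide substrate, ATP at Km (4.0 μM), 3% DMSO, 10 compound concentrations; 40 min, room temperature. EDTA stop, streptavidin-XL665/Eu-TK antibody HTRF read 665/620 nm; 4-parameter IC50.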

For assay [2], the target named is Human MER (residues 528-999) (Homo sapiens (Human), UniProt Q12866). The experiment in a line: Human Mer kinase assay, HTRF KinEase (Example C-2). The format is biochemical. The following applies: protocol of Example C-2 (other compounds). Summed up: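 HTRF KinEase TK assay with MER 528-999 (1 ng/well) in enzymatic buffer plus 5 mM MgCl2 and 1 mM DTT, biotinylated peptide substrate and ATP at Km (40 μM), 3% DMSO final, 60 min at room temperature. Stopped with EDTA detection mix (SA-XL665, TK antibody-Eu3+), read at 665/620 nm after 60 min; IC50 from 10-point 4-parameter fit, normalized to DMSO and 1 μM reference.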

For assay [3], the target named is Human MET (residues 956-1390) (Homo sapiens (Human), UniProt P08581). Nature of the assay: Human Met kinase assay, HTRF KinEase (Example D-2). Format: biochemical. The following applies: protocol of Example D-2 (other compounds); read-out: c-Met IC50. Summed up:
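HTRF KinEase assay on MET residues 956-1390 (0.1 ng/well) in buffer with 5 mM MgCl2, 1 mM DTT and 1 mM MnCl2, with biotinylated peptide substrate, ATP at Km, 10 compound concentrations and 3% DMSO final, run 40 min at room temperature. The […] signal was normalized to DMSO and to 1 μM reference compound, and IC50 came from a 4-parameter logistic fit.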

For assay [4], the target named is KDR (phospho-KDR, VEGF165-stimulated HUVEC cells) (Homo sapiens (Human), UniProt P35968). Nature of the assay: KDR autophosphorylation ELISA in HUVEC cells (Example G). Format: cell-based. The following applies: cellular activity; KDR autophosphorylation ELISA in HUVEC cells. The essentials:
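HUVEC cells, serum-starved 24 h, were treated 1 h with an 8-point compound dilution (0.3% DMSO) and then stimulated with 100 ng/mL VEGF165 for 5 min. Phospho-KDR in lysates was quantified by sandwich ELISA against a phospho-KDR standard. IC50 from a 4-parameter logistic fit, normalised between stimulated DMSO and unstimulated controls.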

Some results are limits rather than exact numbers.

Chain of KDR (phospho-KDR, VEGF165-stimulated HUVEC cells) (P35968 20-1356): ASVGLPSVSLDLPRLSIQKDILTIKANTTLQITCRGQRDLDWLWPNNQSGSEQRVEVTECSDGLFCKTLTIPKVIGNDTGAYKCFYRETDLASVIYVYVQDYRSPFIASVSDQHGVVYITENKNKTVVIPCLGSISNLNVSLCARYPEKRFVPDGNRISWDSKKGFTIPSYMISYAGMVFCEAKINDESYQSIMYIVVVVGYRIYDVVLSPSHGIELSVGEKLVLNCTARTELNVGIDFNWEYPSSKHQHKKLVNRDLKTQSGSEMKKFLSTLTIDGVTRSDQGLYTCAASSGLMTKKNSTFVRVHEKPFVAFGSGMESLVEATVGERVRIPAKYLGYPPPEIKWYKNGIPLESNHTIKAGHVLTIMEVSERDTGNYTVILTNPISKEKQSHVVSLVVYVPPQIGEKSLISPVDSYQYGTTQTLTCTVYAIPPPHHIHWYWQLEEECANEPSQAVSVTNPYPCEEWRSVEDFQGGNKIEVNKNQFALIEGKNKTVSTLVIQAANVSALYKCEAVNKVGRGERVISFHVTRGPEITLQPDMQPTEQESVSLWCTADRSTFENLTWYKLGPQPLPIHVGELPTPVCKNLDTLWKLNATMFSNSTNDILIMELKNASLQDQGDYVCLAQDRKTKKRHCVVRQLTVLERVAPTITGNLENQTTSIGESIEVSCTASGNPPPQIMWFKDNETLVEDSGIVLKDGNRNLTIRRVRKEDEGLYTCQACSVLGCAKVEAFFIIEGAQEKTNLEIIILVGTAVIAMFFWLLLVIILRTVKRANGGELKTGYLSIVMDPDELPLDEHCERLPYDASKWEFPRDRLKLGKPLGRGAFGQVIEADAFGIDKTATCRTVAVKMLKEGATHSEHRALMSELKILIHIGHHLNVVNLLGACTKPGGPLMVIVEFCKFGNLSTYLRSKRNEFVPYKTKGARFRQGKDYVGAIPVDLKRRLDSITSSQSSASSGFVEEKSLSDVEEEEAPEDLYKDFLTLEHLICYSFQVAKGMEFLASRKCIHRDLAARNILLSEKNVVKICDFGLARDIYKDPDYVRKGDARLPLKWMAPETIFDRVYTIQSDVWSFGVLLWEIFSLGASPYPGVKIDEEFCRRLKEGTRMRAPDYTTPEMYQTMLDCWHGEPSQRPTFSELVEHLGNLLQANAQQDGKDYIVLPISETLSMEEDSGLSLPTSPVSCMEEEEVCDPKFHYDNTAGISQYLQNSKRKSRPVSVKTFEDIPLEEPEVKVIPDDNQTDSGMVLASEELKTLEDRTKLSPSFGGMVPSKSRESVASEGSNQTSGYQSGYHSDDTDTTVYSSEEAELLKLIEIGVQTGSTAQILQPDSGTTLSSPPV
Chain of Human MER (residues 528-999) (Q12866 528-999): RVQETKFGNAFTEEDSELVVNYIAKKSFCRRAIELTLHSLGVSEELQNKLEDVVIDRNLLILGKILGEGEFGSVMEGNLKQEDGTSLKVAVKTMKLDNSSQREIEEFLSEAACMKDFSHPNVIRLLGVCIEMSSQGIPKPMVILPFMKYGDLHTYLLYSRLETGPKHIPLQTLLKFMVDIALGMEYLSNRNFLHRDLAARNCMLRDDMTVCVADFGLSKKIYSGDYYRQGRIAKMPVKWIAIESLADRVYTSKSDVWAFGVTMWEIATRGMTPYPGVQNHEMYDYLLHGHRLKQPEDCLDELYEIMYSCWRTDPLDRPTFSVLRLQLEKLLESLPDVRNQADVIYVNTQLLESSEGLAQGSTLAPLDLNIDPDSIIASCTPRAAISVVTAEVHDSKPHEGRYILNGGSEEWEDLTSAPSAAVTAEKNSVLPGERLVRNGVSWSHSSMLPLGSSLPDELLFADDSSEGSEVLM
Chain of Human KDR (residues 790-1356) (P35968 790-1356): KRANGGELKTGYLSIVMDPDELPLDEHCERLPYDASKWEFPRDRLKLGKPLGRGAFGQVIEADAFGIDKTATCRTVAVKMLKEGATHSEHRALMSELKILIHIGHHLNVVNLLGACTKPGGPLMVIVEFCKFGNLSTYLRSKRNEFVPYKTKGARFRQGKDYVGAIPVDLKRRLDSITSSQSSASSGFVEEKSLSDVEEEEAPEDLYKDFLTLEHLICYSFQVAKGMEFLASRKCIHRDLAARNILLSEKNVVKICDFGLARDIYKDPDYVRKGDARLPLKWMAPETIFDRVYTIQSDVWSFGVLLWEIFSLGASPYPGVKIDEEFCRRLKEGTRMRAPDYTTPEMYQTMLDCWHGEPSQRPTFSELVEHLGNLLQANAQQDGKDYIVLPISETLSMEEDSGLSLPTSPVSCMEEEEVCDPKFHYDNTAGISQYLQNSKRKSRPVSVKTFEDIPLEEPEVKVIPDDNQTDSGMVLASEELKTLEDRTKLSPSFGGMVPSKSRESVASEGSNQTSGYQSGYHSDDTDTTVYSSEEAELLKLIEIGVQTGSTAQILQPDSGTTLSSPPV
Chain of Human MET (residues 956-1390) (P08581 956-1390): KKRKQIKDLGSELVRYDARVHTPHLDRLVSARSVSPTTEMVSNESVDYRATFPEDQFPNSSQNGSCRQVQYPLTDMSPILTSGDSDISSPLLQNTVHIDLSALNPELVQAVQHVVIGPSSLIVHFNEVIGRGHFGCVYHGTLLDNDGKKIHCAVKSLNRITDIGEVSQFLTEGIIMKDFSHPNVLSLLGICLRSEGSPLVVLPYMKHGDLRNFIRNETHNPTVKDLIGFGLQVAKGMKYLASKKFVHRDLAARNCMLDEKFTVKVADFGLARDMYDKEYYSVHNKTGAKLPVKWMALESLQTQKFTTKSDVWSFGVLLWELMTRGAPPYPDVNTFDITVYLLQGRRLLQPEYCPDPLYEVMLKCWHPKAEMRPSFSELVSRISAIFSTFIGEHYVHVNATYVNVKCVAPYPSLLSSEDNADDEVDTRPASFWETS

Regarding `COc1cc2nccc(Oc3ccc(NC(=O)c4cn(CC(F)(F)F)c(C)c(-c5ccc(F)cc5)c4=O)cc3F)c2nc1OC` [Compound 74, N-[4-[(6,7-Dimethoxy-1,5-naphthyridin-4-yl)oxy]-3-fluorophenyl]-5-(4-fluorophenyl)-6-methyl-4-oxo-1-(2,2,2-trifluoroethyl)pyridine-3-carboxamide], the IC50 in assay [1] is < 100 nM; in assay [2], < 100 nM; in assay [3], < 100 nM; in assay [4], 100 to 300 nM.
In the case of `COc1cc2nccc(Oc3ccc(NC(=O)c4cn(-c5cnn(C(F)F)c5)cc(-c5ccc(F)cc5)c4=O)cc3F)c2nc1OC` [Compound 60, 1-[1-(Difluoromethyl)pyrazol-4-yl]-N-[4-[(6,7-dimethoxy-1,5-naphthyridin-4-yl)oxy]-3-fluorophenyl]-5-(4-fluorophenyl)-4-oxopyridine-3-carboxamide], the IC50 in assay [1] is > 300 nM; in assay [2], < 100 nM; in assay [3] it was < 100 nM; in assay [4], > 300 nM.
Consider `COc1ccc2nccc(Oc3ccc(NC(=O)c4ccc(C)n(-c5ccc(F)cc5)c4=O)cc3F)c2n1` [Compound 84, N-[3-Fluoro-4-[(6-methoxy-1,5-naphthyridin-4-yl)oxy]phenyl]-1-(4-fluorophenyl)-6-methyl-2-oxopyridine-3-carboxamide], for which the IC50 was 100 to 300 nM in assay [1], < 100 nM in assay [2], < 100 nM in assay [3] and < 100 nM in assay [4].
For the compound `COc1cc2nccc(Oc3ccc(NC(=O)c4cn(-c5ccn(C)n5)cc(-c5ccc(F)cc5)c4=O)cc3F)c2nc1OC` [Compound 53, N-[4-[(6,7-Dimethoxy-1,5-naphthyridin-4-yl)oxy]-3-fluorophenyl]-5-(4-fluorophenyl)-1-(1-methylpyrazol-3-yl)-4-oxopyridine-3-carboxamide], the IC50 in assay [1] is > 300 nM; in assay [2], < 100 nM; in assay [3], < 100 nM; in assay [4], > 300 nM.
`COc1cc2nccc(Oc3ccc(NC(=O)c4cnc(C)c(-c5ccc(F)cc5)c4O)cc3F)c2nc1OC(C)C` [Compound 415, N-[3-fluoro-4-[(7-methoxy-6-propan-2-yloxy-1,5-naphthyridin-4-yl)oxy]phenyl]-5-(4-fluorophenyl)-4-hydroxy-6-methylpyridine-3-carboxamide]: the IC50 was 100 to 300 nM in assay [1], < 100 nM in assay [2], < 100 nM in assay [3] and < 100 nM in assay [4].
For the compound `COc1cc2nccc(Oc3ccc(NC(=O)c4cc(C(C)=O)c(C)n(-c5ccc(F)cc5)c4=O)cc3F)c2nc1OC` [Compound 86, 5-Acetyl-N-[4-[(6,7-dimethoxy-1,5-naphthyridin-4-yl)oxy]-3-fluorophenyl]-1-(4-fluorophenyl)-6-methyl-2-oxopyridine-3-carboxamide], the IC50 in assay [1] was > 300 nM; in assay [2], < 100 nM; in assay [3], < 100 nM; in assay [4] it was 100 to 300 nM.
In the case of `COc1cc2nccc(Oc3ncc(NC(=O)c4cn(-c5ccn(C)n5)cc(-c5ccc(F)cc5)c4=O)cc3F)c2cc1OC` [Compound 402, N-[6-(6,7-dimethoxyquinolin-4-yl)oxy-5-fluoropyridin-3-yl]-5-(4-fluorophenyl)-1-(1-methylpyrazol-3-yl)-4-oxopyridine-3-carboxamide], the IC50 in assay [1] was > 300 nM; in assay [2], < 100 nM; in assay [3], < 100 nM; in assay [4], > 300 nM.
On to `CCc1cnc2c(Oc3ccc(NC(=O)c4cnc(C)c(-c5ccc(F)cc5C)c4O)cc3F)ccnc2c1` [Compound 419, N-[4-[(7-ethyl-1,5-naphthyridin-4-yl)oxy]-3-fluorophenyl]-5-(4-fluoro-2-methylphenyl)-4-hydroxy-6-methylpyridine-3-carboxamide], for which the IC50 was > 300 nM in assay [1], < 100 nM in assay [2], < 100 nM in assay [3] and < 100 nM in assay [4].
Consider `Cc1cc2nccc(Oc3ccc(NC(=O)c4cnc(C)c(-c5ccc(F)cc5)c4O)cc3F)c2nc1OCCCN1CCOCC1` [Compound 438, N-[3-fluoro-4-[[7-methyl-6-(3-morpholin-4-ylpropoxy)-1,5-naphthyridin-4-yl]oxy]phenyl]-5-(4-fluorophenyl)-4-hydroxy-6-methylpyridine-3-carboxamide], for which the IC50 in assay [1], in assay [2], in assay [3] and in assay [4] was < 100 nM throughout.
`CNc1c(-c2ccc(F)cc2)c(=O)c(C(=O)Nc2ccc(Oc3ccnc4cc(OC)c(OC)nc34)c(F)c2)cn1C` [Compound 76, N-[4-[(6,7-Dimethoxy-1,5-naphthyridin-4-yl)oxy]-3-fluorophenyl]-5-(4-fluorophenyl)-1-methyl-6-(methylamino)-4-oxopyridine-3-carboxamide]: the IC50 in assay [1], in assay [2], in assay [3] and in assay [4] was < 100 nM each time.
In the case of `CCc1cc2nccc(Oc3ccc(NC(=O)c4cnc(C)c(-c5ccc(F)cc5)c4O)cc3F)c2nc1OC` [Compound 420, N-[4-[(7-ethyl-6-methoxy-1,5-naphthyridin-4-yl)oxy]-3-fluorophenyl]-5-(4-fluorophenyl)-4-hydroxy-6-methylpyridine-3-carboxamide], the IC50 is 100 to 300 nM in assay [1], < 100 nM in assay [2], 100 to 300 nM in assay [3] and < 100 nM in assay [4].
`COc1cc2nccc(Oc3ccc(NC(=O)c4cnc(C)c(-c5ccc(F)cc5)c4O)cc3F)c2nc1OCCCN1CCOCC1` [Compound 424, N-[3-fluoro-4-[[7-methoxy-6-(3-morpholin-4-ylpropoxy)-1,5-naphthyridin-4-yl]oxy]phenyl]-5-(4-fluorophenyl)-4-hydroxy-6-methylpyridine-3-carboxamide]: the IC50 in assay [1], in assay [2], in assay [3] and in assay [4] was < 100 nM each time.
Take `COc1cnc2c(Oc3ccc(NC(=O)c4c(C)ncc(-c5ccc(F)cc5)c4O)cc3F)ccnc2c1` [Compound 80, N-[3-Fluoro-4-[(7-methoxy-1,5-naphthyridin-4-yl)oxy]phenyl]-5-(4-fluorophenyl)-4-hydroxy-2-methylpyridine-3-carboxamide]: the IC50 in assay [1], in assay [2], in assay [3] and in assay [4] was < 100 nM each time.
For `CCc1cnc2c(Oc3ccc(NC(=O)c4cnc(C)c(-c5ccc(F)cc5)c4O)cc3F)ccnc2c1` [Compound 418, N-[4-[(7-ethyl-1,5-naphthyridin-4-yl)oxy]-3-fluorophenyl]-5-(4-fluorophenyl)-4-hydroxy-6-methylpyridine-3-carboxamide], the IC50 in assay [1] was 100 to 300 nM; in assay [2] it was < 100 nM; in assay [3] it was < 100 nM; in assay [4], < 100 nM.
For the compound `COc1cc2nccc(Oc3ncc(NC(=O)c4cn(-c5cnn(C)c5)cc(-c5ccc(F)cc5)c4=O)cc3F)c2cc1OC` [Compound 401, N-[6-(6,7-dimethoxyquinolin-4-yl)oxy-5-fluoropyridin-3-yl]-5-(4-fluorophenyl)-1-(1-methylpyrazol-4-yl)-4-oxopyridine-3-carboxamide], the IC50 in assay [1] was > 300 nM; in assay [2], < 100 nM; in assay [3], < 100 nM; in assay [4] it was > 300 nM.
For `COc1cc2nccc(Oc3ccc(NC(=O)c4c5n(cc(-c6ccc(F)cc6)c4=O)CCC5)cc3)c2nc1OC` [Compound 407, N-[4-[(6,7-dimethoxy-1,5-naphthyridin-4-yl)oxy]phenyl]-6-(4-fluorophenyl)-7-oxo-2,3-dihydro-1H-indolizine-8-carboxamide], the IC50 was 100 to 300 nM in assay [1], < 100 nM in assay [2], < 100 nM in assay [3] and > 300 nM in assay [4].
For `COc1cnc2c(Oc3ccc(NC(=O)c4cnc(C)c(-c5c(C)cc(F)cc5C)c4O)cc3F)ccnc2c1` [Compound 417, 5-(4-fluoro-2,6-dimethylphenyl)-N-[3-fluoro-4-[(7-methoxy-1,5-naphthyridin-4-yl)oxy]phenyl]-4-hydroxy-6-methylpyridine-3-carboxamide], the IC50 was > 300 nM in assay [1], 100 to 300 nM in assay [2], < 100 nM in assay [3] and 100 to 300 nM in assay [4].
Regarding `CNC(=O)c1cc2c(Oc3ccc(NC(=O)c4c5n(cc(-c6ccc(F)cc6)c4=O)CCC5)cc3F)ccnc2cc1OC` [Compound 408, 4-[2-fluoro-4-[[6-(4-fluorophenyl)-7-oxo-2,3-dihydro-1H-indolizine-8-carbonyl]amino]phenoxy]-7-methoxy-N-methylquinoline-6-carboxamide], the IC50 in assay [1], in assay [2], in assay [3] and in assay [4] was < 100 nM in each case.

For the origin of these results see patent US12371428B2 (Exelixis, Inc., priority 2019, dated 2025).
